In the data set the test system is CCRIS mutagenicity, Ames/micronucleus/aberration tests. The experiment in a line: CCRIS mutagenicity studies. The text has this:
The CCRIS database contains chemical records with carcinogenicity, mutagenicity, tumor promotion, and tumor inhibition test results. It was developed by the National Cancer Institute (NCI). Data are derived from studies cited in primary journals, current awareness tools, NCI reports, and other sources. Test results have been reviewed by experts in carcinogenesis and mutagenesis.
CCRIS provides historical information from the years 1985 - 2011. It is no longer updated.
This is an archive assay for CCRIS mutagenicity studies.

Where [1] appears, read: Test System: AMES SALMONELLA TYPHIMURIUM, Strain/Indicator: TA98, Metabolic Activation: NONE, Method: PREINCUBATION
Where [2] appears, read: Test System: AMES SALMONELLA TYPHIMURIUM, Strain/Indicator: TA98, Metabolic Activation: NONE, Method: STANDARD PLATE.
Where [3] appears, read: Test System: AMES SALMONELLA TYPHIMURIUM, Strain/Indicator: TA98, Metabolic Activation: RAT, LIVER, S-9, AROCLOR 1254, Method: STANDARD PLATE.
Where [4] appears, read: Test System: AMES SALMONELLA TYPHIMURIUM, Strain/Indicator: TA100, Metabolic Activation: NONE, Method: STANDARD PLATE.
Setting [5] is: Test System: AMES SALMONELLA TYPHIMURIUM, Strain/Indicator: TA100, Metabolic Activation: RAT, LIVER, S-9, AROCLOR 1254, Method: STANDARD PLATE.
The mark [6] stands for this setting: Test System: AMES SALMONELLA TYPHIMURIUM, Strain/Indicator: TA1535, Metabolic Activation: NONE, Method: STANDARD PLATE.

We go through 6 compounds from PubChem BioAssay AID1259407 (Chemical Carcinogenesis Research Information System (CCRIS), 2018).

Structures are written as SMILES. Calls of active or inactive are those of the source. How the calls were made is not given here.

`CC[C@H]1CN2CCc3cc(OC)c(OC)cc3[C@@H]2C[C@@H]1C[C@H]1NCCc2cc(OC)c(OC)cc21`: the mutagenic call is, setting by setting: (Test System: AMES SALMONELLA TYPHIMURIUM, Strain/Indicator: TA98, Metabolic Activation: HAMSTER, LIVER, S-9, AROCLOR 1254 (10%), Method: PREINCUBATION) “inactive; negative”; under setting [1], “inactive; negative”; (Test System: AMES SALMONELLA TYPHIMURIUM, Strain/Indicator: TA98, Metabolic Activation: RAT, LIVER, S-9, AROCLOR 1254 (10%), Method: PREINCUBATION) “inactive; negative”; (Test System: AMES SALMONELLA TYPHIMURIUM, Strain/Indicator: TA100, Metabolic Activation: HAMSTER, LIVER, S-9, AROCLOR 1254 (10%), Method: PREINCUBATION) “inactive; negative”; (Test System: AMES SALMONELLA TYPHIMURIUM, Strain/Indicator: TA100, Metabolic Activation: NONE, Method: PREINCUBATION) “inactive; negative”; (Test System: AMES SALMONELLA TYPHIMURIUM, Strain/Indicator: TA100, Metabolic Activation: RAT, LIVER, S-9, AROCLOR 1254 (10%), Method: PREINCUBATION) “inactive; negative”. Also, the mutagenic call by setting is: (Test System: AMES SALMONELLA TYPHIMURIUM, Strain/Indicator: TA1535, Metabolic Activation: HAMSTER, LIVER, S-9, AROCLOR 1254 (10%), Method: PREINCUBATION) “inactive; negative”; (Test System: AMES SALMONELLA TYPHIMURIUM, Strain/Indicator: TA1535, Metabolic Activation: NONE, Method: PREINCUBATION) “inactive; negative”; (Test System: AMES SALMONELLA TYPHIMURIUM, Strain/Indicator: TA1535, Metabolic Activation: RAT, LIVER, S-9, AROCLOR 1254 (10%), Method: PREINCUBATION) “inactive; negative”; (Test System: AMES SALMONELLA TYPHIMURIUM, Strain/Indicator: TA1537, Metabolic Activation: HAMSTER, LIVER, S-9, AROCLOR 1254 (10%), Method: PREINCUBATION) “inactive; negative”; (Test System: AMES SALMONELLA TYPHIMURIUM, Strain/Indicator: TA1537, Metabolic Activation: NONE, Method: PREINCUBATION) “inactive; negative”; (Test System: AMES SALMONELLA TYPHIMURIUM, Strain/Indicator: TA1537, Metabolic Activation: RAT, LIVER, S-9, AROCLOR 1254 (10%), Method: PREINCUBATION) “inactive; negative”.
Regarding `CC(=O)N(CC(O)CN(C(C)=O)c1c(I)c(C(=O)NCC(O)CO)c(I)c(C(=O)NCC(O)CO)c1I)c1c(I)c(C(=O)NCC(O)CO)c(I)c(C(=O)NCC(O)CO)c1I` (centres undefined), the mutagenic call is “inactive; negative” under setting [2]; “inactive; negative” under setting [3]; “inactive; negative” under setting [4]; “inactive; negative” under setting [5]; “inactive; negative” under setting [6]; “inactive; negative” (Test System: AMES SALMONELLA TYPHIMURIUM, Strain/Indicator: TA1535, Metabolic Activation: RAT, LIVER, S-9, AROCLOR 1254, Method: STANDARD PLATE). Further, the mutagenic call (Test System: AMES SALMONELLA TYPHIMURIUM, Strain/Indicator: TA1537, Metabolic Activation: NONE, Method: STANDARD PLATE) was “inactive; negative”; the mutagenic call (Test System: AMES SALMONELLA TYPHIMURIUM, Strain/Indicator: TA1537, Metabolic Activation: RAT, LIVER, S-9, AROCLOR 1254, Method: STANDARD PLATE) was “inactive; negative”; the mutagenic call (Test System: AMES SALMONELLA TYPHIMURIUM, Strain/Indicator: TA1538, Metabolic Activation: NONE, Method: STANDARD PLATE) is “inactive; negative”; the mutagenic call (Test System: AMES SALMONELLA TYPHIMURIUM, Strain/Indicator: TA1538, Metabolic Activation: RAT, LIVER, S-9, AROCLOR 1254, Method: STANDARD PLATE) was “inactive; negative”; the mutagenic call (Test System: E. COLI, Strain/Indicator: WP2 UVRA, Metabolic Activation: NONE, Method: STANDARD PLATE) is “inactive; negative”; the mutagenic call (Test System: E. COLI, Strain/Indicator: WP2 UVRA, Metabolic Activation: RAT, LIVER, S-9, AROCLOR 1254, Method: STANDARD PLATE) is “inactive; negative”.
With `COc1c2ccoc2nc2c(OC)c(OCC3OC3(C)C)ccc12` (centres undefined), the mutagenic call reads like this: (Test System: AMES SALMONELLA TYPHIMURIUM, Strain/Indicator: TA98, Metabolic Activation: RAT, LIVER, S-9, PHENOBARBITAL, Method: STANDARD PLATE) “inactive; negative”; (Test System: AMES SALMONELLA TYPHIMURIUM, Strain/Indicator: TA100, Metabolic Activation: RAT, LIVER, S-9, PHENOBARBITAL, Method: STANDARD PLATE) “inactive; negative”.
Take `COC1OC1(C)C` (centres undefined): the mutagenic call under setting [4] is “active; positive” and the mutagenic call under setting [6] is “active; positive”.
Turning to `Cc1cc(S(=O)(=O)O)c(N)cc1Cl`, the mutagenic call by setting is: (Test System: AMES SALMONELLA TYPHIMURIUM, Strain/Indicator: TA98, Metabolic Activation: HAMSTER, LIVER, S-9, AROCLOR 1254, Method: STANDARD PLATE) “active; positive”; under setting [2], “inactive; negative”; under setting [3], “active; positive”; (Test System: AMES SALMONELLA TYPHIMURIUM, Strain/Indicator: TA100, Metabolic Activation: HAMSTER, LIVER, S-9, AROCLOR 1254, Method: STANDARD PLATE) “inactive; negative”; under setting [4], “inactive; negative”; under setting [5], “inactive; negative”. The mutagenic call runs as follows: (Test System: Ames Salmonella typhimurium, Strain/Indicator: TA98, Metabolic Activation: None, Method: Preincubation) “inactive; negative”; (Test System: Ames Salmonella typhimurium, Strain/Indicator: TA98, Metabolic Activation: Rat, Liver, S9, Sodium phenobarbital and 5,6-benzoflavone (10%), Method: Preincubation) “inactive; negative”; (Test System: Ames Salmonella typhimurium, Strain/Indicator: TA100, Metabolic Activation: None, Method: Preincubation) “inactive; negative”; (Test System: Ames Salmonella typhimurium, Strain/Indicator: TA100, Metabolic Activation: Rat, Liver, S9, Sodium phenobarbital and 5,6-benzoflavone (10%), Method: Preincubation) “inactive; negative”; (Test System: Ames Salmonella typhimurium, Strain/Indicator: TA1535, Metabolic Activation: None, Method: Preincubation) “inactive; negative”; (Test System: Ames Salmonella typhimurium, Strain/Indicator: TA1535, Metabolic Activation: Rat, Liver, S9, Sodium phenobarbital and 5,6-benzoflavone (10%), Method: Preincubation) “inactive; negative”. Besides, the mutagenic call is, setting by setting: (Test System: Ames Salmonella typhimurium, Strain/Indicator: TA1537, Metabolic Activation: None, Method: Preincubation) “inactive; negative”; (Test System: Ames Salmonella typhimurium, Strain/Indicator: TA1537, Metabolic Activation: Rat, Liver, S9, Sodium phenobarbital and 5,6-benzoflavone (10%), Method: Preincubation) “inactive; negative”; (Test System: E. coli, Strain/Indicator: WP2uvrA/pKM101, Metabolic Activation: None, Method: Preincubation) “inactive; negative”; (Test System: E. coli, Strain/Indicator: WP2uvrA/pKM101, Metabolic Activation: Rat, Liver, S9, Sodium phenobarbital and 5,6-benzoflavone (10%), Method: Preincubation) “inactive; negative”; (Test System: MOUSE LYMPHOMA, Strain/Indicator: L5178Y (TK+/TK-), Metabolic Activation: NONE, Method: SUSPENSION/PLATE) “inactive; negative. reevaluation of results: negative”; (Test System: MOUSE LYMPHOMA, Strain/Indicator: L5178Y (TK+/TK-), Metabolic Activation: RAT, LIVER, S-9, AROCLOR 1254, Method: SUSPENSION/PLATE) “inactive; negative. reevaluation of results: equivocal”. For the same compound, where the note is “Test System: UDS RODENT HEPATOCYTES, Strain/Indicator: THY INCORP (NON-S-PHASE), Metabolic Activation: NONE, Method: AUTORADIOGRAPHY”, the mutagenic call was “inactive; negative”.
Take `O=[N+]([O-])c1ccc2c(c1)Cc1cccc(O)c1-2`: the mutagenic call was “active; positive” under setting [1] and “active; positive” (Test System: AMES SALMONELLA TYPHIMURIUM, Strain/Indicator: TA98, Metabolic Activation: S-9, Method: PREINCUBATION).
